We go through one molecule from patent US8193238B2, “Inhibition of microtubule protrusion in cancer cells” (University of Maryland, Baltimore, priority 2006, dated 2012).

“Also recorded” adds a separate entry of the source.

In one test the test system is EpH4 cells. Kind of test: Protrusions in suspended cells treated with cytoskeletal inhibitors (EpH4). In kind it is cell-based, mouse. How it is done: (§1) In FIG. 2A, after 15 minutes of suspension, protrusions in EpH4 and MCF10A cells are quite small (Control, white arrows). […] In FIG. 2B, populations of live, suspended cells were scored blindly for two or more protrusions longer than the cell radius. Each bar represents the mean+S.D. for three experiments in which at least 100 single cells were counted.
EpH4 cells were suspended in either DMEM (Control) or media containing 5 μM Latrunculin-A (LA), 1 μM Colchicine or the combination of both drugs for 30 minutes. Cells were then spun onto glass coverslips and fluorescently stained for α-tubulin (green) and polymerized actin (red). Protrusions that are difficult to see by phase contrast are easily discernible with immunostaining for α-tubulin (white arrows). Protrusions contain little polymerized actin, except at points of concentration, which are often at the end (arrowhead).
EpH4 and B19 cells were suspended over 2% agarose coated plates to prevent attachment in either serum-free DMEM or media containing. Latrunculin-A (5 μM) to enhance protrusions. For co-staining of α-tubulin and actin, suspended cells were then centrifuged onto poly-L-lysine coated coverslips (280 g×5 min), fixed in 3.7% formaldehyde in PBS for 10 min, and permeablized with 0.1% Triton X-100 in PBS. Adhered cells were then stained for 1 hr at room temperature using FITC-conjugated anti-α-tubulin (1:200; Sigma), Alexa-594 phalloidin (1:100; Molecular Probes), and Hoescht 33342 (1:5000; Sigma).
(§2) In order to initially characterize the cytoskeletal mechanism underlying these protrusions, suspended cells were treated with inhibitors of actin and tubulin polymerization (FIG. 2). After 15 minutes of suspension, the protrusions in untreated EpH4 or MCF10A cells remain fairly short (FIG. 2, white arrows). These early protrusions can often be difficult to detect with phase-contrast microscopy, due to interfering light refraction from the plasma membrane. […] Protrusions were more easily visible with immunofluorescence than phase contrast microscopy (FIG. 3, white arrows). Although actin filament staining was generally low along the length of the protrusion, dense points of actin were often found at the end of protrusions (FIG. 3, arrowheads).

The next test deals with MCF10A cells. Description: Protrusions in suspended cells treated with cytoskeletal inhibitors (MCF10A). Details: protrusions counted with phase-contrast microscopy: dose or concentration left out as unconfirmed. It counts as cell-based, human. How it is done:
as §1, §2
The nontumorigenic human mammary epithelial cell line (MCF10A) or the indicated human breast tumor cell lines were grown in suspension for 30-60 minutes, and protrusions were counted in random fields with phase-contrast microscopy. Values represent the mean±S.D. of three experiments in which at least 100 cells were counted. […] This effect was most apparent in the highly metastatic but exemplary Bt-474 and MDA-MB-231 cells (pictured, black arrows). The exemplary MCF10A cells show far fewer and shorter protrusions at the same time point (pictured, white arrows). Such protrusions are not observed in attached cells.

Test [1] deals with EpH4-Bcl2 cells. Kind of test: Cell-substratum attachment assay. It counts as cell-based, mouse. How it is done:
(§3) In FIG. 6A, EpH4-Bcl2 cells were suspended over agarose and treated with inhibitors as above. Following treatment, cells were plated into 0.3% methylcellulose media over agarose and the rate of cell-cell attachment was followed by Hoescht DNA staining. […] Similar results were found in three independent experiments. In FIG. 6B, EpH4-Bcl2 cells suspended over agarose for one hour in DMEM or DMEM containing LA (5 μM), Colchicine (1 μM), or the combination. Reattachment of these cells to either uncoated tissue culture plates or those pre-coated with laminin was followed by XTT cell viability assay. Values represent mean+S.D. of raw XTT values of three separate experiments.
Equivalent numbers of B19 cells were suspended over 6-well plates coated in 2% agarose in serum-free media containing 5 μM Latrunculin-A (LA; BioMol, Plymouth Meeting, Pa.), 100 μM colchicine (Col; Sigma, St. Louis, Mo.), 5 μg/ml nocodazole (Noc), or 1 μg/ml vinblastine (VinB; Sigma) for a duration of 1 hr at 37° C. Cells were collected by centrifugation (1000 rpm×5 min) and drug containing media was aspirated. Cells were resuspended in EpH4 serum-containing growth media and aliquoted out into 24 wells (8 timepoints×3 replicates) of a 96-well clear bottom black plate. After plating, cells were allowed to attach for duration of 15 min, 45 min, 1.5 hr, 2 hr, 3 hr, 4 hr, 5 hr, and 24 hr at which point the media was aspirated from the replicate wells, washed twice in PBS, and fresh growth media was replaced at each timepoint. After 24 hr, all wells were aspirated and cells were incubated in growth media containing Hoescht 33342 (1:5000) for 30 min at 37° C. to label all attached cells. Fluorescence was measured using a Biotek Synergy HT Multi-Detection Microplate Reader (Winooski, Vt.) at excitation wavelength 360 nm and an emission filter of 460 nm followed by subsequent analysis using the KC4 Data Analysis software. The percentage of cell attachment for each treatment exposure was calculated as the RFU at each timepoint divided by the RFU at 24 h (maximum attachment). The standard deviations of triplicates at each timepoint are shown.
(§4) To determine if these microtubule protrusions influence the ability of cells to form attachments, the cells were treated with inhibitors of actin or tubulin polymerization and assessed both cell-cell and cell-substratum attachment (FIG. 6). […] Induction of such nonspecific attachment activity in detached mammary epithelial cells could promote tumor cell dissemination, particularly when apoptotic resistance allows this response to continue for extended periods.

For test [2], the system named is EpH4-Bcl2 cells. Description: Cell-cell attachment assay. In kind it is cell-based, mouse. The conditions noted are these: EpH4-Bcl2 in 0.3% methylcellulose over agarose, 5 hours; listed as LA. How it is done: as §3
B19 cells were seeded onto 10 cm dishes until 80% confluency. The media was aspirated and cells were incubated in fresh growth media containing Hoescht 33342 (1:5000) for 30 min at 37° C. to label all attached cells. The cells were washed twice in PBS, detached by trypsinization, and an equivalent number of cells were resuspended in serum-free media containing 0.3% methylcellulose with either 5 μM Latrunculin A, 100 μM Colchicine, 1 μg/ml vinblastine, or 5 μg/ml nocodazole and plated over 2% agarose-coated 24-well plates. The progression of cell-cell adhesion over time was visualized by the EpiChemi3 Imaging System (UVP, Inc.; Upland, Calif.) using an excitation wavelength of 365 nm and a blue band pass filter. Images were obtained with an attached Hamamatsu CCD camera (Hamamatsu Photonics, Hamamatsu City, Japan) and analyzed with UVP Labworks Image Acquisition and Analysis Software v. 4.6.
as §4

In the case of `C/C1=C/C(=O)O[C@@H]2C[C@@H](CC[C@H](C)/C=C\C=C\CC1)O[C@@](O)([C@@H]1CSC(=O)N1)C2` [Latrunculin-A], the protrusions result was “significantly enhanced both the number and length of protrusions” in the test with EpH4 cells (EpH4, 15 minutes of suspension, Latrunculin-A 5 μM, Colchicine 1 μM, listed as latrunculin-A); “significantly enhanced both the number and length of protrusions” in the test on MCF10A cells (MCF10A, 15 minutes of suspension, Latrunculin-A 5 μM, Colchicine 1 μM, listed as latrunculin-A). Besides, the “microtubule protrusions by immunofluorescence (α-tubulin)” value with EpH4 cells (EpH4 suspended 30 minutes, LA 5 μM, listed as LA) was “increase the number and length of microtubule protrusions; also recorded: strongly enhances the formation of microtubule protrusions”. In addition, in the test with MCF10A cells (MCF10A in suspension 30-60 minutes, LA), the “protrusions counted with phase-contrast microscopy” value was “increases protrusions”. Further, the “attachment of cells to tissue culture surfaces” value in the test with EpH4-Bcl2 cells [1] (EpH4-Bcl2 (B19), 1 hr in suspension with inhibitor, then replated) was “did not significantly affect attachment”. Also, the “cell-surface attachment to uncoated or laminin-coated plates (XTT)” value with EpH4-Bcl2 cells [1] (EpH4-Bcl2 suspended one hour, LA 5 μM, Colchicine 1 μM) was “does not affect cell-surface attachment”. For the same molecule, the “cell-cell attachment (clustering)” value in the test on EpH4-Bcl2 cells [2] is listed as “did speed the rate at which cells bound to each other; also recorded: cluster similarly or even more tightly compared to control cells”.
